Data taken from paper PMC7853165 (Infectious Diseases and Therapy, 2021).
Where two headings read alike, the source gives them in different places.

What was measured:
[1] = molecular target: T1, angiotensin-converting enzyme 2 (ACE2) (Homo sapiens, UniProt Q9BYF1); assay: SPR; assay type: binding
[2] = molecular target: T1, angiotensin-converting enzyme 2 (ACE2); assay: SPR; assay type: binding; remark: listed apart in the source

T1 sequence (Q9BYF1 18-805): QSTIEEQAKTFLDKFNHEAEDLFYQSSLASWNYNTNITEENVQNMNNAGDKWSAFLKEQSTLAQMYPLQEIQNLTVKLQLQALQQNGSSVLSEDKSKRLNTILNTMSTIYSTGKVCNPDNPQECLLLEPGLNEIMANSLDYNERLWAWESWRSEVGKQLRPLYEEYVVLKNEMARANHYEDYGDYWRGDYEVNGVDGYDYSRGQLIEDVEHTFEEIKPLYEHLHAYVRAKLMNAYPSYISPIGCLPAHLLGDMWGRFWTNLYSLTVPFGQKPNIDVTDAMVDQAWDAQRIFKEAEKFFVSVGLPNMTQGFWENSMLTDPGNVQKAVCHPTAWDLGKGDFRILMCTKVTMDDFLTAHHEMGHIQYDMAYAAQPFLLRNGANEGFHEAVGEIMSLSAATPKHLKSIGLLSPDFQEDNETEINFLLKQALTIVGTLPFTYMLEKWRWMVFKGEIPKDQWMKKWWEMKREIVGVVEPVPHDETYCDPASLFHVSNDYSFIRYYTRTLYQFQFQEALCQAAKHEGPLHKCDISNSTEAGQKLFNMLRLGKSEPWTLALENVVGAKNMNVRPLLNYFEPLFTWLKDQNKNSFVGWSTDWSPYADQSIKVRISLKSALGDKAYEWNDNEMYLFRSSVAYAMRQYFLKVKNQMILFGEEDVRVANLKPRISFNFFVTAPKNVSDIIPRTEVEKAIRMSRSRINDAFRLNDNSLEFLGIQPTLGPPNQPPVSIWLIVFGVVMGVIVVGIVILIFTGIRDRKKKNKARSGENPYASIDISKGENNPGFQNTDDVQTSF

| Kd [1] | Structure (SMILES) | Kd [2] |
| --- | --- | --- |
| 66 µM | CC(C)C[C@H](N[C@@H](Cc1cncn1Cc1cc(Cl)cc(Cl)c1)C(=O)O)C(=O)O [MLN-4760] |  |
|  | CC1=CC(=O)C(C(C)C)=CC1=O [thymoquinone] | 32.1 µM |
